In assay [1] the target is T1, 3-keto-steroid reductase/17-beta-hydroxysteroid dehydrogenase 7 (Homo sapiens) (UniProt P56937).
T1 sequence (whole entry): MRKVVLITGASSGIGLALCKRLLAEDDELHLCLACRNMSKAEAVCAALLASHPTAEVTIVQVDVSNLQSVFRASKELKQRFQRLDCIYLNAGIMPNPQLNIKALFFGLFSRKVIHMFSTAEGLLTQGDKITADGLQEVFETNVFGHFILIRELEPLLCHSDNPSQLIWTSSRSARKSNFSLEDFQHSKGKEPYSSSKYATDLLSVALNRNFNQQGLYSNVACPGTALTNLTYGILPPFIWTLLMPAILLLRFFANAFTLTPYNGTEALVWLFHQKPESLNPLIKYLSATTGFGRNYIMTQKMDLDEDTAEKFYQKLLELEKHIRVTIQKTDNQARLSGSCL
The settings on record: HEK293, at 3 µM.
Description: Inhibition of human 17beta-HSD7 expressed in HEK293 cells assessed as inhibition of reduction of [14C]estrone into [14C]estradiol at 3 uM after 7 hrs

For assay [2], the target named is T1, 3-keto-steroid reductase/17-beta-hydroxysteroid dehydrogenase 7 (Homo sapiens). The settings on record: HEK293, at 0.3 µM.
Description: Inhibition of human 17beta-HSD7 expressed in HEK293 cells assessed as inhibition of reduction of [14C]estrone into [14C]estradiol at 0.3 uM after 7 hrs

`CN1C(=S)CC[C@]2(C)[C@H]3CC[C@@]4(C)[C@@H](CC[C@@]45CCCC(=O)O5)[C@@H]3CC[C@@H]12`: the values for the inhibition in assay [1] and in assay [2] were 12.9% and 11.9%, respectively.

On to `CC1=C(c2ccc(O)cc2)[C@H](c2ccc(OCCN3CCCCC3)cc2)Oc2cc(O)ccc21`, for which the inhibition (as a rule, the percentage by which the read-out fell short of the control) was found to be 4.2% in assay [1] and 3.1% in assay [2].

Consider `CCN(C(=O)c1ccccc1)[C@H]1CC[C@H]2[C@@H]3CC[C@H]4N(C)C(=O)CC[C@]4(C)[C@H]3CC[C@]12C`, for which the inhibition in assay [1] amounted to 99.4%; in assay [2], 63.4%.

As for `CN1C(=O)CC[C@]2(C)[C@H]3CC[C@]4(C)[C@@H](NC(=O)C(C)(C)C)CC[C@H]4[C@@H]3CC[C@@H]12`, the inhibition is 55.9% in assay [1] and 13.5% in assay [2].

Take `CCCNC(=O)N(C)[C@H]1CC[C@H]2[C@@H]3CC[C@H]4N(C)C(=O)CC[C@]4(C)[C@H]3CC[C@]12C`: the inhibition in assay [1] was 2.2%; in assay [2] it was 2.7%.

As for `CCC[C@]1(O)CC[C@H]2[C@@H]3CC[C@H]4N(C)C(=O)CC[C@]4(C)[C@H]3CC[C@@]21C`, the inhibition came out at 98.5% in assay [1] and 47.6% in assay [2].

Consider `CC(C)(C#N)c1cc(Cn2cncn2)cc(C(C)(C)C#N)c1`, for which the inhibition in assay [1] worked out at 0.3%; in assay [2] it was 6.5%.

As to `CN1C(=O)CC[C@]2(C)[C@H]3CC[C@]4(C)[C@@H](N(C(=O)c5ccccc5)c5ccccc5)CC[C@H]4[C@@H]3CC[C@@H]12`, the inhibition turned out to be 64.1% in assay [1] and 31.9% in assay [2].

As to `CC1(C)CC[C@@]2(CC[C@H]3[C@@H]4CC[C@H]5NC(=O)C=C[C@]5(C)[C@H]4CC[C@@]32C)OC1=O`, the inhibition in assay [1] stood at 39.6%; in assay [2], 5%.

For `CC1CC(=O)O[C@]2(CC[C@H]3[C@@H]4CCc5cc(O)ccc5[C@H]4CC[C@@]32C)C1` (stereo not given in full), the inhibition in assay [1] worked out at 22.9%; in assay [2], 14%.

Turning to `CCCNC(=O)N(C1CC1)[C@H]1CC[C@H]2[C@@H]3CC[C@H]4N(C)C(=O)CC[C@]4(C)[C@H]3CC[C@]12C`, the figures for the inhibition in assay [1] and in assay [2] were 41.5% and 12.9%, respectively.

Regarding `CCCCN(C)C(=O)C[C@@H]1Cc2cc(O)ccc2[C@H]2CC[C@@]3(C)[C@@H](CC[C@@]34CCC(=O)O4)[C@H]12`, the values for the inhibition in assay [1] and in assay [2] were 15.5% and 17.1%, respectively.

For `CN1C(=O)CC[C@]2(C)[C@H]3CC[C@]4(C)[C@@H](N(C=O)C5CC5)CC[C@H]4[C@@H]3CC[C@@H]12`, the figures for the inhibition in assay [1] and in assay [2] were 41.2% and 17.6%, respectively.

As to `COC(=O)[C@H]1CC[C@H]2[C@@H]3CC=C4C=C(Cl)CC[C@]4(C)[C@H]3CC[C@]12C`, the inhibition amounted to 16.2% in assay [1] and 0.6% in assay [2].

As to `C[C@]12CC[C@H](O)CC1=CC[C@@H]1[C@@H]2CC[C@]2(C)C(=O)CC[C@@H]12`, the inhibition was determined as 12.1% in assay [1] and 5.7% in assay [2].

Consider `CN1C(=O)CC[C@]2(C)[C@H]3CC[C@]4(C)[C@@H](N(C(=O)NC5CCCCC5)C5CC5)CC[C@H]4[C@@H]3CC[C@@H]12`, for which the inhibition in assay [1] turned out to be 54.7%; in assay [2] it was 8.4%.

Consider `CCCCCNC(=O)[C@H]1CC[C@H]2[C@@H]3CC[C@H]4N(C)C(=O)CC[C@]4(C)[C@H]3CC[C@]12C`, for which the inhibition in assay [1] was found to be 96.3%; in assay [2], 52.7%.

`CN(C(=O)NC1CCCCC1)[C@H]1CC[C@H]2[C@@H]3CC[C@H]4N(C)C(=O)CC[C@]4(C)[C@H]3CC[C@]12C`: the inhibition turned out to be 16.3% in assay [1] and 12.2% in assay [2].

On to `C[C@]12CCC(=O)N[C@@H]1CC[C@@H]1[C@@H]2CC[C@]2(C)[C@@H](N(C(=O)c3ccccc3)c3ccccc3)CC[C@@H]12`, for which the values for the inhibition in assay [1] and in assay [2] were 64.1% and 24%, respectively.

In the case of `COc1cc2c(cc1S(N)(=O)=O)CC[C@@H]1[C@@H]2CC[C@]2(C)C(=O)CC[C@@H]12`, the inhibition is 10.3% in assay [1] and 6.4% in assay [2].

`CCCC1CC[C@@]2(CC[C@H]3[C@@H]4CCc5cc(O)ccc5[C@H]4CC[C@@]32C)OC1=O` (stereo not given in full): the inhibition in assay [1] came to 47.1%; in assay [2], 15.8%.

`C[C@]12CC[C@H]3C(=CCc4cc(O)ccc43)[C@@H]1CC[C@@H]2O`: the inhibition in assay [1] came to 8.8%; in assay [2] it was 12.6%.

Take `COc1cc2c(cc1S(N)(=O)=O)CC[C@@H]1[C@@H]2CC[C@@]2(C)[C@H]1CCC2(O)Cc1ccc(C(C)(C)C)cc1` (stereo not given in full): the inhibition in assay [1] was 6.4%; in assay [2], 0%.

For the molecule `CC1(C)CC[C@@]2(CC[C@H]3[C@@H]4CCc5cc(C(N)=O)ccc5[C@H]4CC[C@@]32C)OC1=O`, the figures for the inhibition in assay [1] and in assay [2] were 27% and 11.6%, respectively.

On to `C[C@]12CCC(=O)C[C@@H]1CC[C@@H]1[C@@H]2CC[C@@]2(C)[C@H]1CC[C@@]21CCCC(=O)O1`, for which the inhibition turned out to be 30.9% in assay [1] and 18.6% in assay [2].

In the case of `CC1(C)CC[C@@]2(CC[C@H]3[C@@H]4CCc5cc(C(N)=S)ccc5[C@H]4CC[C@@]32C)OC1=O`, the results for the inhibition in assay [1] and in assay [2] were 60.9% and 18.5%, respectively.

In the case of `CN(C)C(=O)c1ccc2c(c1)CC[C@@H]1[C@@H]2CC[C@@]2(C)[C@H]1CC[C@@]21CCC(C)(C)C(=O)O1`, the results for the inhibition in assay [1] and in assay [2] were 36.1% and 15.2%, respectively.

With `O=c1cc(-c2ccccc2)oc2cc(O)cc(O)c12`, the results for the inhibition in assay [1] and in assay [2] were 5.1% and 6.8%, respectively.

As for `C[C@]12CC[C@@H](O)C[C@H]1CC[C@@H]1[C@@H]2CC[C@]2(C)[C@@H](O)CC[C@@H]12`, the results for the inhibition in assay [1] and in assay [2] were 6% and 2.9%, respectively.

In the case of `CC1(C)C[C@@]2(CC[C@H]3[C@@H]4CCc5cc(O)ccc5[C@H]4CC[C@@]32C)OC1=O`, the values for the inhibition in assay [1] and in assay [2] were 42.4% and 14.5%, respectively.

Consider `C[C@]12C[C@H](O)[C@H]3[C@@H](CCC4=CC(=O)CC[C@@]43C)[C@@H]1CC[C@@H]2C(=O)CO`, for which the inhibition turned out to be 14.9% in assay [1] and 8.1% in assay [2].

For `CC1(C)CC[C@@]2(CC[C@H]3[C@@H]4CCc5cc(O)c(C(N)=O)cc5[C@H]4CC[C@@]32C)OC1=O`, the inhibition came out at 23.8% in assay [1] and 7.9% in assay [2].

On to `COC(=O)c1ccc2c(c1)CC[C@@H]1[C@@H]2CC[C@@]2(C)[C@H]1CC[C@@]21CCC(C)(C)C(=O)O1`, for which the inhibition in assay [1] is 49%; in assay [2], 15.1%.

Regarding `C[C@]12CC[C@@H]3c4ccc(S(N)(=O)=O)cc4CC[C@H]3[C@@H]1CCC2=O`, the inhibition in assay [1] came to 6.1%; in assay [2], 4.2%.

For the molecule `C[C@]12CC[C@@H](O)C[C@@H]1CC[C@@H]1[C@@H]2CC[C@]2(C)[C@@H](O)CC[C@@H]12`, the inhibition came out at 8.4% in assay [1] and 1.1% in assay [2].

Turning to `C[C@]12CC[C@@]3(C[C@H]1CC[C@@H]1[C@@H]2CC[C@]2(C)C(=O)CC[C@@H]12)CN(CC(CN1CCOCC1)OC(=O)CCC1CCCC1)C(=O)O3` (stereo not given in full), the inhibition in assay [1] worked out at 8.7%; in assay [2], 18.9%.

As for `CN1C(=O)CC[C@]2(C)[C@H]3CC[C@]4(C)[C@@H](Nc5ccc([N+](=O)[O-])c(C(F)(F)F)c5)CC[C@H]4[C@@H]3CC[C@@H]12`, the inhibition turned out to be 100% in assay [1] and 66.1% in assay [2].

As to `C[C@@]12CCC[C@H]1[C@@H]1CCc3cc(O)ccc3[C@H]1CC2`, the inhibition in assay [1] is 6%; in assay [2] it was 4.5%.

For the molecule `O=c1c(-c2ccc(O)cc2)coc2cc(O)cc(O)c12`, the inhibition in assay [1] and in assay [2] was 0% throughout.

On to `CCCN(C=O)[C@H]1CC[C@H]2[C@@H]3CC[C@H]4N(C)C(=O)CC[C@]4(C)[C@H]3CC[C@]12C`, for which the inhibition in assay [1] stood at 56.3%; in assay [2], 21.7%.

As for `C=CC[C@@]1(O)CC[C@H]2[C@@H]3CC[C@H]4N(C)C(=O)CC[C@]4(C)[C@H]3CC[C@@]21C`, the inhibition in assay [1] amounted to 4.9%; in assay [2], 13.3%.

Take `C[C@]12CCC(=O)N[C@@H]1CC[C@@H]1[C@@H]2CC[C@]2(C)[C@@H](N3CCC3=O)CC[C@@H]12`: the inhibition in assay [1] is 20.3%; in assay [2] it was 15.4%.

On to `C[C@]12CC[C@H]3[C@@H](CCC4=CC(=O)CC[C@@]43C)[C@@H]1CC[C@@H]2C(=O)CO`, for which the values for the inhibition in assay [1] and in assay [2] were 11.9% and 11.2%, respectively.

Take `CN1C(=O)CC[C@]2(C)[C@H]3CC[C@]4(C)[C@@H](Nc5ccc([N+](=O)[O-])cc5)CC[C@H]4[C@@H]3CC[C@@H]12`: the values for the inhibition in assay [1] and in assay [2] were 88% and 40.9%, respectively.

For `CC1(C)CC[C@@]2(CC[C@H]3[C@@H]4CCc5cc(O)c(I)cc5[C@H]4CC[C@@]32C)OC1=O`, the inhibition in assay [1] came out at 24.9%; in assay [2], 10%.

`CC1(C)CC[C@@]2(CC[C@H]3[C@@H]4CCc5c(cc(Cl)c(O)c5Cl)[C@H]4CC[C@@]32C)OC1=O`: the inhibition in assay [1] amounted to 37%; in assay [2], 20.2%.

Regarding `COc1ccc(N(C(=O)C(C)C)[C@H]2CC[C@H]3[C@@H]4CC[C@H]5N(C)C(=O)CC[C@]5(C)[C@H]4CC[C@]23C)cc1`, the inhibition in assay [1] is 99.8%; in assay [2] it was 41.1%.

On to `CN1C(=O)CC[C@]2(C)[C@H]3CC[C@]4(C)[C@@H](N(C=O)Cc5ccccc5)CC[C@H]4[C@@H]3CC[C@@H]12`, for which the inhibition in assay [1] was 77.6%; in assay [2], 31.6%.

As for `CC(C)C(=O)N(c1ccc([N+](=O)[O-])c(C(F)(F)F)c1)[C@H]1CC[C@H]2[C@@H]3CC[C@H]4N(C)C(=O)CC[C@]4(C)[C@H]3CC[C@]12C`, the inhibition was found to be 71.3% in assay [1] and 13.7% in assay [2].

`C[C@@]12C=CC[C@H]1[C@@H]1CCc3cc(O)ccc3[C@H]1CC2`: the inhibition in assay [1] worked out at 5.8%; in assay [2] it was 7.5%.
